From US12570643B2, “3-aryloxy-3-five-membered heteroaryl propylamine compound, and crystal form and use thereof” (Shanghai Leado Pharmatech Co. Ltd., priority 2019, dated 2026)

Columns and labels:
[1] = test system: postoperative pain model in rat; assay: Postoperative pain model in rat, mechanical hyperalgesia test; assay type: in vivo; conditions: 10 mg/kg intramuscular injection
Procedure: Injection of compound I-1: 36.13 mg of compound I-1 prepared in Example 2 was weighed and added into 3.140 mL of normal saline, and well mixed by vortex;
The solvent of the test compound I-1 was normal saline, the administration dose was 10 mg/kg, and the administration method was intramuscular injection. 36.13 mg of the compound I-1 was weighed and added into 3.140 mL normal saline, and well mixed by vortex. The reference compound used in the experiment was bupivacaine injection, purchased from Shanghai Zhaohui Pharmaceutical Co., Ltd., in a dose of 10 mg/kg via intramuscular injection.
Aseptic operation was performed during surgery, surgical instruments (scissors, forceps, scalpel, surgical cotton, suture thread) were disinfected before the operation. The rats were anesthetized with sodium pentobarbital (50 mg/kg, intraperitoneal injection), and the toes of the rats were squeezed to confirm that the animals were completely anesthetized before the surgery. Ophthalmic ointment was applied to the animal's eyes to prevent the animal's cornea from drying out. Iodophor and 70% ethanol were used to disinfect the skin of the surgery area on the sole of the left hind foot three times, and the surgery was started after the skin was dried. Starting at 0.5 cm from the heel, a 1 cm long incision was made longitudinally toward the toe. After cutting the skin, the flexor digitorum brevis was lifted to make longitudinal blunt injury. After pressing to stop the bleeding, the wound was sutured. The surgical instruments were cleaned and sterilized with hot bead sterilizer. After the surgery, the animals were placed on an electric blanket and injected subcutaneously with 5 mL normal saline to prevent dehydration. When the animal was completely awake (free to move), put the animal back into the cage. […]
The rat was placed alone in a plexiglass box with a grid on the bottom of the box to ensure that the rat's feet can be tested. […] During the test, the animal's rapid foot shrinkage was recorded as a pain response. The animal's foot shrinkage when the test fiber left the animal's skin was also recorded as a pain response. If the animal moved or walked, it would not be recorded as the pain response, the test should be repeated. […] The mechanical hyperalgesia test results are recorded in the table of FIG. 10, in which pain response is indicated with an “x” and no pain response is indicated with an “o.”
Mechanical hyperalgesia was expressed as the paw withdrawal threshold (PWT) in the behavioral test of rats, which was calculated according to the following equation: 50% response threshold (g)=(10(Xf+k))/10,000 • Xf=the final test fiber value used in the test • K=table value (Chaplan et al. 1994, page 62) • □=Average difference 5. […]

[2] = test system: SNL model in rat; assay: SNL model in rat, mechanical hyperalgesia test; assay type: in vivo, SD rats; conditions: 10 mg/kg intragastric, 1 hour after administration, hydrochloride used; control group 3.967 ± 0.775
Procedure: SD rats were taken for surgery, male, SPF grade, mass 150 g-180 g. The surgical procedure was performed aseptically. The animals were anesthetized with sodium pentobarbital (50 mg/kg, intraperitoneal injection). The surgical area of the waist of animals was shaved, and the skin was disinfected three times with iodophor and 70% ethanol. Start the operation after the skin was dry. A longitudinal incision was made in the posterior part of the sacral bone of the animal's waist with a scalpel to expose the left paravertebral muscles, and the muscle tissue was separated with a distractor to expose the vertebra. The left spinal nerves L5 and L6 were separated, ligated with 6-0 silk thread, and the wounds were sutured. After the surgery, the animals were placed on an electric blanket and injected subcutaneously with 5 mL normal saline to prevent dehydration. When the animal was completely awake (free to move), put the animal back into the cage.
After the surgery, the animals were adapted in the experimental environment for 15 minutes/day for 3 days.
After administration, mechanical hyperalgesia test was performed. The rats were placed individually in a plexiglas box with a grid at the bottom of the box to ensure that the feet of the rats can be tested. Rats would adapt for 15 minutes before the test. […] The rapid paw withdrawal of the animal during the test was recorded as a pain response. The paw withdrawal of the animal when the test fiber left the animal's skin was also recorded as a pain response. If the animal moved or walked, it will not be recorded as a pain response, the test should be repeated. […]
Mechanical hyperalgesia was expressed as the paw withdrawal threshold (PWT) in the behavioral test of rats, which was calculated according to the following equation: 50% response threshold (g)=(10(^Xf+kδ))/10,000 • Xf=the final test fiber value used in the test • K=table value • δ=Average difference
Data were collected using Excel software and analyzed using Prism 6.01 (Graph pad software, Inc.) software.

[3] = Neurocytotoxicity (CCK-8 cytotoxicity test); assay type: cell-based; conditions: human, SH-SY5Y cells
Procedure: HepG-2 and SH-SY5Y cells were prepared and placed in 10 cm dish and incubated at 37° C., 5% CO2 in a cell incubator; the cells were digested with trypsinize, resuspended and then counted. Based on a system of 100 μl/well, 8000 cells were transferred to a 96-well plate. The cells were incubated in a 37° C., 5% CO2 cell incubator for 24 hours; a gradient concentration system of compound I-1 (prepared in Example 2) was prepared, 2 times diluted, the system was 100 μl/well. The supernatant in the 96-well plate cell culture system on the first day was removed, and a fresh prepared drug concentration system was added to the corresponding culture plate wells culturing cells (set up duplicate wells). […] After completion of the culture, the supernatant was removed from the cell culture system of the 96-well plate, 100 μl of detection solution (medium containing 10% CCK-8) was add to each well, and incubated in a cell incubator at 37° C. and 5% CO2 for 1 hour, then taken it out and measured the absorbance at 450 nm with a microplate reader. Data were processed, cytotoxicity was calculated, and IC50 was calculated by GraphPad Prism. […]
A (dosing): absorbance of the well having cells, CCK-8 solution and drug solution
A (blank): absorbance of the well having medium and CCK-8 solution, without cells.
A (0 dosing): absorbance of the well having cells and CCK-8 solution, without drug solution […]

## CNCC[C@@H](Oc1cccc2ccoc12)c1cccs1 [Compound I-1, (R)-3-(benzofuran-7-yloxy)-N-methyl-3-(thiophen-2-yl)propan-1-amine]
[1]; 1 hour after administration, Normal Saline 3.561
  PWT: 5.885 g
[1]; 2 hours after administration, Normal Saline 3.382
  PWT (g): 5.135. g
[2]
  PWT: 7.869 ± 2.846 g
[3]
  IC50 at 72 h: ~101 µM
